# Test system: person's skin
# Assay: Experimentation with ingredient concentrations in the ointment formulation applied to a person's skin
# Format: in vivo, human
# Conditions: Zinc Oxide amount lesser than 4.70% of the formulation
# Description: The ointment formulation includes an occlusive and nourishing ingredient in an amount configured to reduce moisture evaporation from and seal the skin. The specific occlusive and nourishing ingredient in the subject ointment formulation may be Lanolin. Lanolin is additionally selected for its ability to supply the skin with a majority of the 23 proteinogenic, i.e., protein-building, amino acids, which combine into peptide chains to form the building blocks of a vast array of proteins. In an exemplary 126.0 ml volume sample of the ointment formulation, the specific volume of the Lanolin ingredient was 103.53 ml, or 82.17%. Although Lanolin made up 82.17% of the exemplary sample, the allowable range of the Lanolin ingredient in the ointment formulation is approximately 74-85%.
# The ointment formulation having the specific disclosed volume of Lanolin is for a moderate to severe condition of the skin. Although the amount of Lanolin may be increased for more severe conditions, the disclosed specific concentration of 82.17% is near the maximum that may be used while maintaining the necessary amounts of the other ingredients. Accordingly, as the volume of Lanolin is adjusted for severity of the particular skin condition, the amounts of other ingredients to be described with specificity below would have to be adjusted accordingly. […]
smiles,measurement,value
[O]=[Zn] [Zinc Oxide],effectiveness,has not shown to be effective
